Source: publication PMC5349906, “NT1721, a novel epidithiodiketopiperazine, exhibits potent in vitro and in vivo efficacy against acute myeloid leukemia” (Oncotarget, 2016)
pIC50: −log10 of the molar value.

Target: T1, SUV39H1 (Homo sapiens, UniProt O43463)
T1 construct: recombinant SUV39H1
T1 sequence (O43463 1-412): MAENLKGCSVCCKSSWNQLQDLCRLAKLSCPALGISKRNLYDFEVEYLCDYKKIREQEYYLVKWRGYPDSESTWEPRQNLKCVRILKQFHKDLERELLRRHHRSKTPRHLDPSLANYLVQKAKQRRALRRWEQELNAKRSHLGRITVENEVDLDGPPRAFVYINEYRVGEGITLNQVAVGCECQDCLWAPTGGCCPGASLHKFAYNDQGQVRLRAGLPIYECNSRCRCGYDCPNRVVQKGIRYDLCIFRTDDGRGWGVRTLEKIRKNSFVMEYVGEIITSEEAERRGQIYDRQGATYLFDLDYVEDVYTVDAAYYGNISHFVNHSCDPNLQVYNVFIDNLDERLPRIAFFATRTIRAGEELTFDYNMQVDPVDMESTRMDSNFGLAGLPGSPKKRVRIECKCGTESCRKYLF
Experiment: cell-free histone methyltransferase activity assay with recombinant enzyme (data not shown)
Type: biochemical

CN1C(=O)[C@@]23C[C@](C)(C#N)[C@H](c4ccc5c(c4)OCO5)N2C(=O)[C@]1(C)SS3 (racemic) [NT1721]
pIC50: 5.89
